US20050267092A1, “Novel cephalosporin compounds and process for preparing the same” (priority 2002, published 2005)
≈ marks a conversion by molar mass, not a printed value. Like-named read-outs stand apart in the source and are kept apart here.

Columns and labels:
Assay in all cases: Minimum Inhibitory Concentration (MIC), agar dilution, standard strains
Assay type in all cases: cell-based
[1] = tested on: S. aureus K311; conditions: for MIC: Staphylococcus aureus, read-out: Minimum Inhibitory Concentration (MIC), S. aureus K311
Experimental: (§1) Minimum Inhibitory Concentration (MIC)
(§2) The effectiveness of the compound according to the present invention was determined by obtaining Minumum Inhibitory Concentration (MIC) of the compounds prepared by the above examples (Compounds I-1˜I-6, I-10) and Vancomycin, which is the known compound having a potent activity against gram-positive strains, as the control drug against the standard strains. Specifically, Minimum Inhibitory Concentration was obtained by diluting the test compounds according to a double dilution method, dispersing them in Mueller-Hinton agar medium, inoculating each of the test strains having 10^7 cfu (colony forming unit) per ml in an amount of 2 μl to the medium and then incubating them at 37° C. for 20 hours. From the results of Minimum Inhibitory Concentration test, it can be seen that the compound according to the present invention has a good activity against major pathogenic microorganisms, which cause hospital infection, including MRSA strains.

[2] = tested on: E. faecalis 2168; conditions: for MIC: read-out: Minimum Inhibitory Concentration (MIC), E. faecalis 2168
Experimental: as §1, §2

[3] = tested on: S. epidermidis Q033; conditions: for MIC: Staphylococcus epidermidis, read-out: Minimum Inhibitory Concentration (MIC), S. epidermidis Q033
Experimental: as §1, §2

[4] = tested on: S. aureus 77; conditions: for MIC: read-out: Minimum Inhibitory Concentration (MIC), S. aureus 77
Experimental: as §1, §2

[5] = tested on: S. aureus giorgio; conditions: for MIC: Staphylococcus aureus, read-out: Minimum Inhibitory Concentration (MIC), S. aureus giorgio
Experimental: as §1, §2

[6] = K311, Mueller-Hinton agar, double dilution, 37° C. for 20 hours
[7] = Enterococcus faecalis, 2168, Mueller-Hinton agar, double dilution, 37° C. for 20 hours
[8] = Q033, Mueller-Hinton agar, double dilution, 37° C. for 20 hours
[9] = Staphylococcus aureus, 77, Mueller-Hinton agar, double dilution, 37° C. for 20 hours
[10] = Mueller-Hinton agar, double dilution, 37° C. for 20 hours

Row | Structure (SMILES) | MIC [1, 6] [µg/mL] | MIC [2, 7] [µg/mL] | MIC [3, 8] [µg/mL] | MIC [4, 9] [µg/mL] | MIC [5, 10] [µg/mL] | further results
1 | Nc1cc(S/C=C/C2=C(C(=O)O)N3C(=O)[C@@H](NC(=O)C(=NOC4CCCC4)c4nc(N)sc4Cl)[C@H]3SC2)nc(N)n1 [Compound I-10, (6R,7R)-7-({2-(2-amino-5-chloro-1,3-thiazol-4-yl)-2-[(cyclopentyloxy)imino]acetyl}amino)-3-{(E)-2-[(2,6-diamino-4-pyrimidinyl)sulfanyl]ethenyl}-8-oxo-5-thia-1-azabicyclo[4.2.0]oct-2-ene-2-carboxylic acid] | 2 (≈ 3.13 µM) | 4 (≈ 6.27 µM) | 0.063 (≈ 0.0987 µM) | 2 (≈ 3.13 µM) | 0.5 (≈ 0.784 µM) | 
2 | Cc1cc(S/C=C/C2=C(C(=O)O)N3C(=O)[C@@H](NC(=O)C(=NO)c4nc(N)sc4Cl)[C@H]3SC2)nc(SCCN)n1 [Compound I-5] |  |  |  |  |  | Minimum Inhibitory Concentration (MIC), S. aureus K311 [1, 10]: 2 µg/mL; Minimum Inhibitory Concentration (MIC), E. faecalis 2168 [2, 10]: 0.25 µg/mL; Minimum Inhibitory Concentration (MIC), S. epidermidis Q033 [3, 10]: 0.13 µg/mL; Minimum Inhibitory Concentration (MIC), S. aureus 77 [4, 10]: 1 µg/mL; Minimum Inhibitory Concentration (MIC), S. aureus giorgio [5, 10]: 0.25 µg/mL
3 | Nc1nc(C(=NO)C(=O)N[C@@H]2C(=O)N3C(C(=O)O)=C(/C=C/Sc4nc(N)c5cn[nH]c5n4)CS[C@H]23)c(Cl)s1 [Compound I-6, (6R,7R)-7-{[2-(2-amino-5-chloro-1,3-thiazol-4-yl)-2-(hydroxyimino)acetyl]amino}-3-{(E)-2-[(4-amino-1H-pyrazolo[3,4-d]pyrimidin-6-yl)sulfanyl]ethenyl}-8-oxo-5-thia-1-azabicyclo[4.2.0]oct-2-ene-2-carboxylic acid] | 0.5 (≈ 0.84 µM) | 0.5 (≈ 0.84 µM) | 0.031 (≈ 0.0521 µM) | 0.5 (≈ 0.84 µM) | 0.13 (≈ 0.218 µM) | 
4 | Nc1cc(S/C=C/C2=C(C(=O)O)N3C(=O)[C@@H](NC(=O)C(=NO)c4nc(N)sc4Cl)[C@H]3SC2)nc(O)n1 [Compound I-1, (6R,7R)-7-{[2-(2-amino-5-chloro-1,3-thiazol-4-yl)-2-(hydroxyimino)acetyl]amino}-3-{(E)-2-[(6-amino-2-hydroxy-4-pyrimidinyl)sulfanyl]ethenyl}-8-oxo-5-thia-1-azabicyclo[4.2.0]oct-2-ene-2-carboxylic acid] | 0.5 (≈ 0.876 µM) | 0.5 (≈ 0.876 µM) | 0.063 (≈ 0.11 µM) | 0.25 (≈ 0.438 µM) | 0.13 (≈ 0.228 µM) | 
5 | CN[C@H](CC(C)C)C(=O)N[C@H]1C(=O)N[C@@H](CC(N)=O)C(=O)N[C@H]2C(=O)N[C@H]3C(=O)N[C@H](C(=O)N[C@H](C(=O)O)c4cc(O)cc(O)c4-c4cc3ccc4O)[C@H](O)c3ccc(c(Cl)c3)Oc3cc2cc(c3O[C@@H]2O[C@H](CO)[C@@H](O)[C@H](O)[C@H]2O[C@H]2C[C@](C)(N)[C@H](O)[C@H](C)O2)Oc2ccc(cc2Cl)[C@H]1O [Vancomycin, reference compound] |  |  |  |  |  | MIC ([1]; K311, 20 h): 2 µg/mL (≈ 1.38 µM); MIC ([2]; Enterococcus faecalis, 2168, 20 h): > 64 µg/mL; MIC ([3]; Q033, 20 h): 1 µg/mL (≈ 0.69 µM); MIC ([4]; Staphylococcus aureus, 77, 20 h): 1 µg/mL (≈ 0.69 µM); MIC ([5]; 20 h): 1 µg/mL (≈ 0.69 µM)
6 | Nc1cc(S/C=C/C2=C(C(=O)O)N3C(=O)[C@@H](NC(=O)C(=NO)c4nc(N)sc4Cl)[C@H]3SC2)nc(N)n1 [Compound I-2, (6R,7R)-7-{[2-(2-amino-5-chloro-1,3-thiazol-4-yl)-2-(hydroxyimino)acetyl]amino}-3-{(E)-2-[(2,6-diamino-4-pyrimidinyl)sulfanyl]ethenyl}-8-oxo-5-thia-1-azabicyclo[4.2.0]oct-2-ene-2-carboxylic acid] | 1 (≈ 1.75 µM) | 1 (≈ 1.75 µM) | 0.063 (≈ 0.111 µM) | 1 (≈ 1.75 µM) | 0.13 (≈ 0.228 µM) | 
7 | Nc1nc(O)cc(S/C=C/C2=C(C(=O)O)N3C(=O)[C@@H](NC(=O)C(=NO)c4nc(N)sc4Cl)[C@H]3SC2)n1 [Compound I-3, (6R,7R)-7-{[2-(2-amino-5-chloro-1,3-thiazol-4-yl)-2-(hydroxyimino)acetyl]amino}-3-{(E)-2-[(2-amino-6-hydroxy-4-pyrimidinyl)sulfanyl]ethenyl}-8-oxo-5-thia-1-azabicyclo[4.2.0]oct-2-ene-2-carboxylic acid] | 0.5 (≈ 0.876 µM) | 0.5 (≈ 0.876 µM) | 0.063 (≈ 0.11 µM) | 0.5 (≈ 0.876 µM) | 0.13 (≈ 0.228 µM) | 
8 | NCCSc1nccc(S/C=C/C2=C(C(=O)O)N3C(=O)[C@@H](NC(=O)C(=NO)c4nc(N)sc4Cl)[C@H]3SC2)n1 [Compound I-4, (6R,7R)-7-{[2-(2-amino-5-chloro-1,3-thiazol-4-yl)-2-(hydroxyimino)acetyl]amino}-3-{(E)-2-({2-[(2-aminoethyl)sulfanyl]-4-pyrimidinyl}sulfanyl)ethenyl}-8-oxo-5-thia-1-azabicyclo[4.2.0]oct-2-ene-2-carboxylic acid] | 2 (≈ 3.25 µM) | 1 (≈ 1.63 µM) | 0.13 (≈ 0.211 µM) | 1 (≈ 1.63 µM) | 0.25 (≈ 0.406 µM) | 
